Target: Sys410 (uncultured bacterium, UniProt H9CDG2)
Test: spectrophotometric p-nitrophenol release at […] nm, Michaelis-Menten fit
Details: pH 6.5, potassium phosphate 50 mM, 55°C, gum arabic and Triton X-100 in substrate solution

Sequence of Sys410 (H9CDG2 1-280 limits assumed): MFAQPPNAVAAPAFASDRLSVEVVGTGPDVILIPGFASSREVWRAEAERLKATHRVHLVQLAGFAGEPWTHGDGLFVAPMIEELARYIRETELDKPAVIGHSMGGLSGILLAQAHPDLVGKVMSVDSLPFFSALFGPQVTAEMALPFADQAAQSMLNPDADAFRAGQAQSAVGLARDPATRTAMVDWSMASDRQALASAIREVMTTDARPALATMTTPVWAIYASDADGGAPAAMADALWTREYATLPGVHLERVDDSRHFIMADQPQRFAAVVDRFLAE

Q: `CCCCCCCC(=O)Oc1ccc([N+](=O)[O-])cc1` [C6, ρ-nitrophenyl caprylate] was tested. Which Km (paper labels caprylate as C6, chain length uncertain) did it give?
A: 33.2 ± 2.1 µM

Q: For `CCCCCC(=O)Oc1ccc([N+](=O)[O-])cc1` [C8, ρ-nitrophenyl caproate], which Km (paper labels caproate as C8, chain length uncertain) is on record?
A: 57.6 ± 1.9 µM

Reference: publication PMC3317823, “Identification and characterization of a novel thermostable pyrethroid-hydrolyzing enzyme isolated through metagenomic approach” (Microbial Cell Factories, 2012)
